From patent publication US8232269B2, “Amide compounds useful in therapy” (Pfizer Inc., priority 2008, dated 2012)

Target: T1, Progesterone Receptor (PR) (Homo sapiens, UniProt P06401)
T1 construct: endogenous in cells; host or cells: T47D human breast mammary carcinoma cells
T1 sequence (P06401 1-933): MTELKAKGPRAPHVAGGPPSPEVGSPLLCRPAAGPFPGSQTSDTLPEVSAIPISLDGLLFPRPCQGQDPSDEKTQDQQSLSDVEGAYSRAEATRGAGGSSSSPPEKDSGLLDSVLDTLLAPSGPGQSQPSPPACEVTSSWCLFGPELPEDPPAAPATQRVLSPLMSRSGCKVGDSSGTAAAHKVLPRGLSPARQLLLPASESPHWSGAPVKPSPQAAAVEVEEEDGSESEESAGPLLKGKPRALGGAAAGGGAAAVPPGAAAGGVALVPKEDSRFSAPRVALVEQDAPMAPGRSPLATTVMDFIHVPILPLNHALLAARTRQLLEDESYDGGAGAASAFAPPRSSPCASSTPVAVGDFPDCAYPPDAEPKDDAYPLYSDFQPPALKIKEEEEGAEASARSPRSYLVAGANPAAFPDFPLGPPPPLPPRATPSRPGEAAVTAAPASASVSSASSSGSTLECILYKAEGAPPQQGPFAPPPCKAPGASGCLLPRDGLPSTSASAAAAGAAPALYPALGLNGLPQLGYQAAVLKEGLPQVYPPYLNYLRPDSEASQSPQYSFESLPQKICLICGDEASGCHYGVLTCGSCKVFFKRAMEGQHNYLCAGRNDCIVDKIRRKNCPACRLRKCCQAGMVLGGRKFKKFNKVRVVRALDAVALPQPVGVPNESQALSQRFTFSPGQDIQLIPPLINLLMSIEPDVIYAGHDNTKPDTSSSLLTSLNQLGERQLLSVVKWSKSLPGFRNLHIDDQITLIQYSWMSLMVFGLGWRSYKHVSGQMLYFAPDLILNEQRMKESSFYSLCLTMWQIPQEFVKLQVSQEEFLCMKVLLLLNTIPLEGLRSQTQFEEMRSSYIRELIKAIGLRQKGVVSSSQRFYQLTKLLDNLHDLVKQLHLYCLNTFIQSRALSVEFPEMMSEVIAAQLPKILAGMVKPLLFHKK
Test: In vitro functional assay for progesterone receptor (PR) antagonists: inhibition of progesterone-induced alkaline phosphatase expression in T47D cells
Format: cell-based
Conditions: antagonist format, 5 nM progesterone, Ki calculated from IC50 with the Cheng-Prusoff equation
Procedure, shortened: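 Antagonist format: T47D cells (8750/well, phenol red-free DMEM + 5% CS-FCS) given half-log compound dilutions plus 5 nM progesterone (final), incubated overnight (≥16 h) at 37 °C. Alkaline phosphatase read by CSPD chemiluminescence after freeze-thaw lysis; 0.1 μM RU-486 final defines minimum.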

Ki [nM]	SMILES
18.9	CC(C)n1nc(-c2ccc(C#N)cc2)c(C2CC2)c1C(=O)NCC(C)(C)C [Example 34, 3-(4-Cyanophenyl)-4-cyclopropyl-N-(2,2-dimethylpropyl)-1-isopropyl-1H-pyrazole-5-carboxamide]
27.3	CCNC(=O)CNC(=O)c1c(C2CC2)c(-c2ccc(C#N)cc2)nn1C(C)C [Example 42, 3-(4-Cyanophenyl)-4-cyclopropyl-N-[2-(ethylamino)-2-oxoethyl]-1-isopropyl-1H-pyrazole-5-carboxamide]
> 2010	CNC(=O)c1c(C2CC2)c(-c2ccc(C#N)cc2)nn1C(C)C [Example 46, 3-(4-Cyanophenyl)-4-cyclopropyl-1-isopropyl-N-methyl-1H-pyrazole-5-carboxamide]
3.59	CC(C)n1nc(-c2ccc(C#N)cc2)c(C2CC2)c1C(=O)NC1CCC1 [Example 50, 3-(4-Cyanophenyl)-N-cyclobutyl-4-cyclopropyl-1-isopropyl-1H-pyrazole-5-carboxamide]
5.7	CC(C)n1nc(-c2ccc(C#N)cc2)c(C2CC2)c1C(=O)NC1CCOC1 (centres unmarked) [Example 52, 3-(4-Cyanophenyl)-4-cyclopropyl-1-isopropyl-N-(tetrahydrofuran-3-yl)-1H-pyrazole-5-carboxamide]
8.45	CC(C)n1nc(-c2ccc(C#N)cc2)c(C2CC2)c1C(=O)NCCC1CC1 [Example 54, 3-(4-Cyanophenyl)-4-cyclopropyl-N-(2-cyclopropylethyl)-1-isopropyl-1H-pyrazole-5-carboxamide]
82.6	CC(C)n1nc(-c2ccc(C#N)cc2)c(C2CC2)c1C(=O)NC(C)(C)CO [Example 56, 3-(4-Cyanophenyl)-4-cyclopropyl-N-(2-hydroxy-1,1-dimethylethyl)-1-isopropyl-1H-pyrazole-5-carboxamide]
42.1	CC(C)n1nc(-c2ccc(C#N)cc2)c(C2CC2)c1C(=O)NC(C)(C)C [Example 60, N-tert-Butyl-3-(4-cyanophenyl)-4-cyclopropyl-1-isopropyl-1H-pyrazole-5-carboxamide]
3.09	Cc1cc(-c2nn(C(C)C)c(C(=O)NCC3CC3)c2C)ccc1C#N [Example 62, 3-(4-Cyano-3-methylphenyl)-N-(cyclopropylmethyl)-1-isopropyl-4-methyl-1H-pyrazole-5-carboxamide]
10.9	Cc1cc(-c2nn(C(C)C)c(C(=O)NC[C@@H](C)O)c2C)ccc1C#N [Example 64, 3-(4-Cyano-3-methylphenyl)-N-[(2R)-2-hydroxypropyl]-1-isopropyl-4-methyl-1H-pyrazole-5-carboxamide]
3.55	CCNC(=O)c1c(C)c(-c2ccc(C#N)c(C)c2)nn1C(C)C [Example 65, 3-(4-Cyano-3-methylphenyl)-N-ethyl-1-isopropyl-4-methyl-1H-pyrazole-5-carboxamide]
6.38	Cc1cc(-c2nn(C(C)C)c(C(=O)NCC(C)(C)O)c2C)ccc1C#N [Example 68, 3-(4-Cyano-3-methylphenyl)-N-(2-hydroxy-2-methylpropyl)-1-isopropyl-4-methyl-1H-pyrazole-5-carboxamide]

Further lines, the compound ahead of its results:

SMILES	Ki [nM]
CC[C@@H](C)NC(=O)c1c(C2CC2)c(-c2ccc(C#N)cc2)nn1C(C)C [Example 35, 3-(4-Cyanophenyl)-4-cyclopropyl-1-isopropyl-N-[(1R)-1-methylpropyl]-1H-pyrazole-5-carboxamide]	11.2
CC(C)n1nc(-c2ccc(C#N)cc2)c(C2CC2)c1C(=O)NC1CCOCC1 [Example 43]	26
CC(C)n1nc(-c2ccc(C#N)cc2)c(C2CC2)c1C(=O)NCC(F)(F)F [Example 48, 3-(4-Cyanophenyl)-4-cyclopropyl-1-isopropyl-N-(2,2,2-trifluoroethyl)-1H-pyrazole-5-carboxamide]	5.27
CC(C)n1nc(-c2ccc(C#N)cc2)c(C2CC2)c1C(=O)NCC1CC1 [Example 49, 3-(4-Cyanophenyl)-4-cyclopropyl-N-(cyclopropylmethyl)-1-isopropyl-1H-pyrazole-5-carboxamide]	4.94
CC(C)n1nc(-c2ccc(C#N)cc2)c(C2CC2)c1C(=O)N(C)CC1CC1 [Example 51, 3-(4-Cyanophenyl)-4-cyclopropyl-N-(cyclopropylmethyl)-1-isopropyl-N-methyl-1H-pyrazole-5-carboxamide]	4.65
CC(C)n1nc(-c2ccc(C#N)cc2)c(C2CC2)c1C(=O)NC[C@H]1CCCO1 [Example 53, 3-(4-Cyanophenyl)-4-cyclopropyl-1-isopropyl-N-[(2R)-tetrahydrofuran-2-ylmethyl]-1H-pyrazole-5-carboxamide]	7.38
CC(C)n1nc(-c2ccc(C#N)cc2)c(C2CC2)c1C(=O)NC[C@@H]1CCCO1 [Example 55, 3-(4-Cyanophenyl)-4-cyclopropyl-1-isopropyl-N-[(2S)-tetrahydrofuran-2-ylmethyl]-1H-pyrazole-5-carboxamide]	13.8
CC(C)n1nc(-c2ccc(C#N)cc2)c(C2CC2)c1C(=O)NC1CC1 [Example 58, 3-(4-Cyanophenyl)-N,4-dicyclopropyl-1-isopropyl-1H-pyrazole-5-carboxamide]	6.87
COCCNC(=O)c1c(C2CC2)c(-c2ccc(C#N)cc2)nn1C(C)C [Example 59, 3-(4-Cyanophenyl)-4-cyclopropyl-1-isopropyl-N-(2-methoxyethyl)-1H-pyrazole-5-carboxamide]	7.84
CC(=O)CNC(=O)c1c(C2CC2)c(-c2ccc(C#N)cc2)nn1C(C)C [Example 61, 3-(4-Cyanophenyl)-4-cyclopropyl-1-isopropyl-N-(2-oxopropyl)-1H-pyrazole-5-carboxamide]	8.29
Cc1cc(-c2nn(C(C)C)c(C(=O)NC[C@H](C)O)c2C)ccc1C#N [Example 63, 3-(4-Cyano-3-methylphenyl)-N-[(2S)-2-hydroxypropyl]-1-isopropyl-4-methyl-1H-pyrazole-5-carboxamide]	6.24
Cc1cc(-c2nn(C(C)C)c(C(=O)NC(C)C)c2C)ccc1C#N [Example 66, 3-(4-Cyano-3-methylphenyl)-N,1-diisopropyl-4-methyl-1H-pyrazole-5-carboxamide]	3.56
Cc1cc(-c2nn(C(C)C)c(C(=O)NC3CC3)c2C)ccc1C#N [Example 67, 3-(4-Cyano-3-methylphenyl)-N-cyclopropyl-1-isopropyl-4-methyl-1H-pyrazole-5-carboxamide]	4.4
Cc1c(-c2ccc(C#N)cc2)nn(C2CCC2)c1C(=O)NCC1CC1 [Example 69, 3-(4-Cyanophenyl)-1-cyclobutyl-N-(cyclopropylmethyl)-4-methyl-1H-pyrazole-5-carboxamide]	3.4
CNC(=O)c1c(C)c(-c2ccc(C#N)cc2)nn1C1CCC1 [Example 70, 3-(4-Cyanophenyl)-1-cyclobutyl-N,4-dimethyl-1H-pyrazole-5-carboxamide]	5.51
Cc1c(-c2ccc(C#N)cc2)nn(C2CCC2)c1C(=O)NC1CC1 [Example 71, 3-(4-Cyanophenyl)-1-cyclobutyl-N-cyclopropyl-4-methyl-1H-pyrazole-5-carboxamide]	8.25
Cc1c(-c2ccc(C#N)cc2)nn(C2CCC2)c1C(=O)NC[C@H](C)O [Example 72, 3-(4-Cyanophenyl)-1-cyclobutyl-N-[(2S)-2-hydroxypropyl]-4-methyl-1H-pyrazole-5-carboxamide]	13.3
